Earlier results as cited in US20230293063A1 (SOMNUS SCIENTIFIC LTD, priority 2020, published 2023).

Which “fraction metabolized in the liver” value (Smits, Annaert and Allegaert, 2017) does the source give for CC(C)c1cccc(C(C)C)c1O [propofol, 2,6-diisopropylphenol] here?
The value was 90%.

And the “free fraction of the total drug concentration” value (blood)?
The value was 2%.
